Data as given in patent publication US5945436A, “Pyridylmethyl nitriles, amides and thioamides useful as fungicides” (Uniroyal Chemical Company, Inc., priority 1997, dated 1999).

Legend:
Erysiphe graminis [1] = assay: Powdery mildew of barley, systemic root uptake (BMS); format: in vivo; conditions: 45 ml of 250 mg/l, 8 days after inoculation
Protocol: (§1) Compositions containing Compounds Nos. 1-81 were prepared by dissolving 0.24 grams of each of the compounds in 8 ml of acetone or other suitable inert solvent. Each of the resultant solutions was treated with 3 drops of TWEEN 20 (ethoxylated ethylene sorbitan monolaurate, a non-ionic surfactant)(I.C.I.), and water was added to form an emulsion. The degree of dilution with water was dictated by the desired concentration of the compound in the composition. The greater the quantity of water added, the lower the concentration of the compound in the composition, reported in milligrams per liter (mg/l) […] Upon reaching these ages, the plants were either treated with 45 ml of 250 mg/l concentration of the compositions of Example 9 or were left untreated. The untreated plants were used as controls. The 45 ml compositions saturated the soil of the treated pots without significant loss through drainage into the saucers below the pots. Twenty-four hours after the treatment with the compositions, both the barley and cucumber plants in all the pots, those treated and those untreated, were inoculated with powdery mildew fungus. This was accomplished by tapping leaves of previously infected barley and cucumber plants over the treated and untreated pots containing the barley and cucumber plants, respectively, to distribute spores of the fungus over the plants tested. […] Intermediate ratings were assigned depending on the degree of disease. […] The results of the powdery mildew disease control of barley are reported under the heading of "BMS". The results for cucumber mildew control are reported under the heading "CMS".

Erysiphe cichoracearum = assay: Powdery mildew of cucumber, systemic root uptake (CMS); format: in vivo; conditions: 45 ml of 250 mg/l, 8 days after inoculation
Protocol: as §1

Uromyces phaseoli = assay: Bean rust fungus eradicant test (URO PHA); format: in vivo; conditions: pinto bean, eradicant spray 2 days after inoculation, 1,000 mg/l; for pest or weed control at 1000 µg/mL: Uromyces phaseoli, 216 h, read-out: Percent Reduction of Disease, URO PHA
Protocol: Compositions containing Compounds Nos. 1-81 were prepared by dissolving 0.24 grams of each of the compounds in 8 ml of acetone or other suitable inert solvent. Each of the resultant solutions was treated with 3 drops of TWEEN 20 (ethoxylated ethylene sorbitan monolaurate, a non-ionic surfactant)(I.C.I.), and water was added to form an emulsion. The degree of dilution with water was dictated by the desired concentration of the compound in the composition. The greater the quantity of water added, the lower the concentration of the compound in the composition, reported in milligrams per liter (mg/l) A plurality of pots were each planted with two pinto bean plants, Phaseolus vulgaris, each, susceptible to rust disease. When the plants were 7 days old, at the primary leaf stage of growth, they were all sprayed with a suspension containing 20,000 spores of the bean rust fungus, Uromyces phaseoli, per ml. All the pots were then incubated in a controlled environmental chamber, maintained at 99% humidity and 21° C., for 24 hours to allow infection to occur. The plants were then removed from the incubator and allowed to dry. Two days after inoculation each of the infected plants was then either sprayed with one of the compositions of Example 9, at a dosage of 1,000 mg/l, or left unsprayed. The unsprayed plants acted as controls. All of the sprayed and unsprayed plants were then placed in a greenhouse at 21° C. for nine days to allow the disease to develop. […] Control of disease was determined by comparing treated plants with the untreated controls. The results, expressed as percent reduction of disease, are summarized in Table II under the heading "URO PHA".

Erysiphe polygoni = assay: Powdery mildew on pinto bean, foliar application (ERY POL); format: in vivo; conditions: Erysiphe polygoni, similar procedure as barley (1,000 mg/l), read-out: Percent Reduction of Disease, ERY POL
Protocol: (§2) Compositions containing Compounds Nos. 1-81 were prepared by dissolving 0.24 grams of each of the compounds in 8 ml of acetone or other suitable inert solvent. Each of the resultant solutions was treated with 3 drops of TWEEN 20 (ethoxylated ethylene sorbitan monolaurate, a non-ionic surfactant)(I.C.I.), and water was added to form an emulsion. The degree of dilution with water was dictated by the desired concentration of the compound in the composition. The greater the quantity of water added, the lower the concentration of the compound in the composition, reported in milligrams per liter (mg/l) Ten plants of "Robust" variety barley were planted in each of a plurality of pots. Each pot was then either sprayed with one of the compositions of Example 9, at a composition concentration of 1,000 mg/l, or left unsprayed. For each pot sprayed, one pot was left unsprayed as a control. After the leaves of the sprayed pots were dried, the sprayed pots and the unsprayed control pots were placed in a greenhouse maintained at 21° C. All the pots were then inoculated with barley powdery mildew fungus, Erysiphe graminis. This inoculation was accomplished by distributing spores of the fungus over the leaves of the plants to be tested from plants which had previously been infected with the mildew disease. […] Again, percent control was computed by comparing the treatment scores with the scores of the untreated controls. The results are summarized in Table II under the heading "ERY GRA". Using a similar procedure as described above for the barley, pinto bean plants were prepared, treated and inoculated with the fungus Erysiphe polygoni. The results of this testing are summarized in Table II under the heading "ERY POL".

Erysiphe graminis [2] = assay: Powdery mildew in barley, foliar application (ERY GRA); format: in vivo; conditions: Blumeria graminis, foliar, 192 h, foliar, 1,000 mg/l, 8 days after inoculation, read-out: Percent Reduction of Disease, ERY GRA
Protocol: as §2, with “GRA".” for “GRA". Using a similar procedure as described above for the barley, pinto bean plants were prepared, treated and inoculated with the fungus Erysiphe polygoni. The results of this testing are summarized in Table II under the heading "ERY POL".”

Septoria nodorum = assay: Fungal growth inhibition, treated disc on agar (SEP NOD); format: cell-based; conditions: disc dipped in 500 mg/l, 29° C.; for inhibition at 500 µg/mL: Parastagonospora nodorum, read-out: Percent Growth Inhibition, SEP NOD
From the text: (§3) Filter paper discs, each 11 mm. in diameter, were dipped in each of the test solutions. The discs were allowed to air dry to drive off the acetone solvent. A number of untreated discs were used as controls.
(§4) The treated and untreated discs were then placed on agar plates and one of the following fungus species: Septoria nodorum (SEP NOD), Botrytis cinerea (BOT CIN), Fusarium oxysporum (FUS OXY), Pythium ultimum (PYT ULT), Rhizoctonia solani (RHI SOL), Colletotrichum gossypii (COL GOS), and Scierotinia minor (SCL MIN), was added to the center of each disc in the form of a culture plug with the fungus mat in contact with the paper of the test disc. Cercosporidium personatum (CER PER), was added to discs as a spore suspension (20,000 spores/ml) to the disc (two drops of spore suspension per disc), rather than a mycelial culture plug. The plates were then incubated at 29° C. in an oven.
(§5) With the exception of the discs containing Cercosporidium personatum, the discs were evaluated by first measuring the radius from the center of the fungus colony on the treated discs and on the untreated discs. Percent growth inhibition of each of the compounds tested was determined as a function of the difference between the radius of the fungus colony on the treated disc versus the radius of the fungus colony on the untreated disc.

Rhizoctonia solani = assay: Fungal growth inhibition, treated disc on agar (RHI SOL); format: cell-based; conditions: disc dipped in 500 mg/l, 29° C.; for inhibition at 500 µg/mL: Rhizoctonia solani, read-out: Percent Growth Inhibition, RHI SOL
From the text: as §3, §4, §5

Fusarium oxysporum = assay: Fungal growth inhibition, treated disc on agar (FUS OXY); format: cell-based; conditions: disc dipped in 500 mg/l, 29° C.; for inhibition at 500 µg/mL: Fusarium oxysporum, read-out: Percent Growth Inhibition, FUS OXY

| SMILES | Percent Reduction of Disease, BMS (Erysiphe graminis [1]) [%] | Percent Reduction of Disease, CMS (Erysiphe cichoracearum) [%] | Percent Reduction of Disease, URO PHA (Uromyces phaseoli) [%] | pest or weed control at 1000 µg/mL (Erysiphe polygoni) [%] | pest or weed control at 1000 µg/mL (Erysiphe graminis [2]) [%] | inhibition at 500 µg/mL (Septoria nodorum) [%] | inhibition at 500 µg/mL (Rhizoctonia solani) [%] | Percent Growth Inhibition, FUS OXY (Fusarium oxysporum) [%] | pest or weed control at 1000 µg/mL (Uromyces phaseoli) [%] | inhibition at 500 µg/mL (Fusarium oxysporum) [%] | Percent Growth Inhibition, SEP NOD (Septoria nodorum) [%] | Percent Growth Inhibition, RHI SOL (Rhizoctonia solani) [%] |
| --- | --- | --- | --- | --- | --- | --- | --- | --- | --- | --- | --- | --- |
| CCCCC(C#N)(CCc1ccc(OCC)cc1)c1cccnc1 (centres unmarked) [Compound 35] | 0 | 0 | 90 | 100 | 85 | 90 | 40 | 30 | – | – | – | – |
| CCCCOc1ccc(CCC(C#N)(CCCC)c2cccnc2)cc1 (centres unmarked) [Compound 54] | 0 | 0 | – | 90 | 100 | 100 | 100 | – | 35 | 100 | – | – |
| CCCCCCC(C#N)(CCc1ccc(OC)cc1)c1cccnc1 (centres unmarked) [Compound 36] | 0 | 0 | – | 100 | 85 | 96 | 25 | – | 100 | 80 | – | – |
| CCCC(C#N)(CCCc1ccccc1Cl)c1cccnc1 (stereo not drawn) [Compound 15, 2-chloro-α-propyl-(3-pyridinyl)benzene pentanenitrile] | 0 | 96 | – | 100 | 100 | 93 | 98 | – | 83 | 95 | – | – |
| C=C(Cl)CC(C#N)(CCc1ccc(F)cc1)c1cccnc1 (centres unmarked) [Compound 65] | 0 | 0 | – | 100 | 85 | 100 | 30 | – | 50 | 100 | – | – |
| CCCCC(C#N)(CCc1ccc(F)cc1)c1cccnc1 (centres unmarked) [Compound 11] | 74 | 39 | – | 100 | 100 | 60 | 98 | – | 100 | 10 | – | – |
| CCCC(C#N)(CCc1ccccc1)c1ccncc1 (centres unmarked) [Compound 25] | 0 | 17 | – | 17 | 67 | 19 | 4 | – | 17 | 63 | – | – |
| C#CCC(C#N)(CCc1ccccc1)c1cccnc1 (centres unmarked) [Compound 4] | 35 | 20 | – | 90 | 70 | 92 | 82 | – | 0 | 100 | – | – |
| C=CCC(C#N)(CCc1ccc(C)cc1)c1cccnc1 (centres unmarked) [Compound 33] | 40 | 20 | – | 100 | 100 | 96 | 0 | – | 100 | 100 | – | – |
| C=CCC(C#N)(Cc1ccc(C(C)(C)C)cc1)c1cccnc1 (centres unmarked) [Compound 18] | 20 | 20 | – | 100 | 100 | 5 | 40 | – | 0 | 50 | – | – |
| CC(C)CCC(C#N)(CCc1ccc(F)cc1)c1cccnc1 (centres unmarked) [Compound 49] | 0 | 0 | 83 | 90 | 100 | – | – | – | – | 65 | 100 | 100 |
| Cc1ccc(CCC(C#N)(CCC(F)(F)F)c2cccnc2)cc1 (centres unmarked) [Compound 80] | 100 | 92 | – | 100 | 100 | 0 | 62 | – | 83 | 24 | – | – |
| N#CC(CCc1ccc(F)cc1)(CC(F)(F)F)c1cccnc1 (centres unmarked) [Compound 52] | 100 | 85 | – | 100 | 100 | 100 | 100 | – | 70 | 100 | – | – |
| CC=CCC(C#N)(CCc1ccc(F)cc1)c1cccnc1 (centres unmarked) [Compound 59] | 75 | 0 | – | 90 | 100 | 100 | 5 | – | 35 | 100 | – | – |
| CCCCC(C#N)(CCc1ccc(C)cc1)c1cccnc1 (centres unmarked) [Compound 34] | 0 | 20 | – | 100 | 100 | 100 | – | – | 100 | 100 | – | – |
